Laboratory results as given in PubChem BioAssay (NCI).
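Test compounds were applied to cells in 96-well plates for 48 hours at 5 doses. Here, GI50 denotes the concentration required for 50% inhibition of growth. The concentration for full growth arrest is given as TGI.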

What was measured:
Assay in all cases: inhibition of tumour cell growth, NCI panel, 48 h
[1] = test system: UO-31 renal
[2] = test system: 786-0 renal
[3] = test system: SK-MEL-2 melanoma
[4] = test system: SNB-75 CNS
[5] = test system: M14 melanoma
[6] = test system: HT29 colon
[7] = test system: MALME-3M melanoma
[8] = test system: MCF7 breast
[9] = test system: RXF 393 renal
[10] = test system: K-562 leukemia
[11] = test system: NCI-H522 lung
[12] = test system: OVCAR-8 ovarian
[13] = test system: IGROV1 ovarian
[14] = test system: NCI/ADR-RES ovarian
[15] = test system: UACC-62 melanoma
[16] = test system: HCC-2998 colon
[17] = test system: SW-620 colon
[18] = test system: DU-145 prostate
[19] = test system: COLO 205 colon
[20] = test system: KM12 colon
[21] = test system: EKVX NSCLC
[22] = test system: SF-268 CNS
[23] = test system: SK-OV-3 ovarian
[24] = test system: SK-MEL-28 melanoma
[25] = test system: HL-60(TB) leukemia
[26] = test system: HOP-92 NSCLC
[27] = test system: MDA-MB-231 breast
[28] = test system: PC-3 prostate
[29] = test system: OVCAR-4 ovarian
[30] = test system: HCT-116 colon
[31] = test system: NCI-H23 lung
[32] = test system: HOP-62 NSCLC
[33] = test system: SF-295 CNS
[34] = test system: SN12C renal
[35] = test system: SF-539 CNS
[36] = test system: MDA-MB-435
[37] = test system: A498 renal
[38] = test system: SK-MEL-5 melanoma
[39] = test system: RPMI-8226 leukemia
[40] = test system: BT-549 breast
[41] = test system: HS 578T breast
[42] = test system: ACHN renal
[43] = test system: T-47D breast
[44] = test system: OVCAR-5 ovarian
[45] = test system: NCI-H226 lung
[46] = test system: SR leukemia
[47] = test system: HCT-15 colon
[48] = test system: CCRF-CEM leukemia
[49] = test system: U251 CNS
[50] = test system: MOLT-4 leukemia
[51] = test system: CAKI-1 renal
[52] = test system: A549 NSCLC
[53] = test system: SNB-19 CNS
[54] = test system: NCI-H460 lung
[55] = test system: TK-10 renal
[56] = test system: OVCAR-3 ovarian
[57] = test system: UACC-257 melanoma
[58] = test system: LOX IMVI melanoma

Work on `Oc1c(C(c2ccc(F)cc2)N2CCCCC2)ccc2cncnc12` (stereo unspecified) yielded a GI50 [1] of 834 nM, a TGI [1] of 6620 nM and a GI50 [2] of 1690 nM. For the same compound, the TGI [2] was greater than 100000 nM, the GI50 [3] was 527 nM and the TGI [3] was 5860 nM. It also gave a GI50 [4] of 246 nM, a TGI [4] of 3950 nM and a GI50 [5] of 746 nM. It also gave a TGI [5] greater than 75200 nM, a GI50 [6] of 747 nM and a TGI [6] greater than 100000 nM. The GI50 [7] was 1170 nM, the TGI [7] was 47900 nM and the GI50 [8] was 344 nM. It also gave a TGI [8] greater than 39400 nM, a GI50 [9] of 416 nM and a TGI [9] of 12200 nM. It also gave a GI50 [10] of 503 nM, a TGI [10] greater than 100000 nM and a GI50 [11] of 353 nM. It also gave a TGI [11] of 10200 nM, a GI50 [12] of 453 nM and a TGI [12] greater than 100000 nM. The GI50 [13] was 532 nM, the TGI [13] was 21700 nM and the GI50 [14] was 2580 nM. It also gave a TGI [14] greater than 100000 nM, a GI50 [15] of 476 nM and a TGI [15] of 5110 nM. For the same compound, the GI50 [16] was 2090 nM, the TGI [16] was greater than 100000 nM and the GI50 [17] was 478 nM. The TGI [17] was greater than 100000 nM, the GI50 [18] was 784 nM and the TGI [18] was greater than 100000 nM. The GI50 [19] was 3300 nM, the TGI [19] was greater than 100000 nM and the GI50 [20] was 1070 nM. For the same compound, the TGI [20] was greater than 100000 nM, the GI50 [21] was 672 nM and the TGI [21] was 45900 nM. For the same compound, the GI50 [22] was 484 nM, the TGI [22] was greater than 100000 nM and the GI50 [23] was 571 nM. It also gave a TGI [23] of 38800 nM, a GI50 [24] of 710 nM and a TGI [24] greater than 100000 nM. The GI50 [25] was 1140 nM, the TGI [25] was 6220 nM and the GI50 [26] was 313 nM. For the same compound, the TGI [26] was 2960 nM, the GI50 [27] was 1500 nM and the TGI [27] was greater than 100000 nM. The GI50 [28] was 426 nM, the TGI [28] was greater than 100000 nM and the GI50 [29] was 1770 nM. It also gave a TGI [29] greater than 100000 nM, a GI50 [30] of 364 nM and a TGI [30] greater than 100000 nM. It also gave a GI50 [31] of 414 nM, a TGI [31] greater than 100000 nM and a GI50 [32] of 513 nM. It also gave a TGI [32] greater than 100000 nM, a GI50 [33] of 413 nM and a TGI [33] greater than 100000 nM. For the same compound, the GI50 [34] was 396 nM, the TGI [34] was greater than 100000 nM and the GI50 [35] was 388 nM. The TGI [35] was greater than 81200 nM, the GI50 [36] was 412 nM and the TGI [36] was greater than 100000 nM. It also gave a GI50 [37] of 1460 nM, a TGI [37] of 9430 nM and a GI50 [38] of 529 nM. The TGI [38] was 3630 nM, the GI50 [39] was 555 nM and the TGI [39] was greater than 100000 nM. For the same compound, the GI50 [40] was 576 nM, the TGI [40] was greater than 100000 nM and the GI50 [41] was 432 nM. It also gave a TGI [41] greater than 100000 nM, a GI50 [42] of 1240 nM and a TGI [42] greater than 100000 nM. The GI50 [43] was 612 nM, the TGI [43] was 97000 nM and the GI50 [44] was 1280 nM. It also gave a TGI [44] greater than 100000 nM, a GI50 [45] of 1190 nM and a TGI [45] of 19400 nM. It also gave a GI50 [46] of 675 nM, a TGI [46] greater than 100000 nM and a GI50 [47] of 2110 nM. The TGI [47] was greater than 100000 nM, the GI50 [48] was 477 nM and the TGI [48] was greater than 100000 nM. For the same compound, the GI50 [49] was 325 nM, the TGI [49] was greater than 100000 nM and the GI50 [50] was 1380 nM. For the same compound, the TGI [50] was greater than 100000 nM, the GI50 [51] was 899 nM and the TGI [51] was 13400 nM. The GI50 [52] was 377 nM, the TGI [52] was greater than 51300 nM and the GI50 [53] was 396 nM. For the same compound, the TGI [53] was greater than 100000 nM, the GI50 [54] was 351 nM and the TGI [54] was 14100 nM. For the same compound, the GI50 [55] was 1350 nM, the TGI [55] was greater than 100000 nM and the GI50 [56] was 783 nM. For the same compound, the TGI [56] was greater than 100000 nM, the GI50 [57] was 711 nM and the TGI [57] was 12200 nM. It also gave a GI50 [58] of 432 nM and a TGI [58] greater than 100000 nM.
